Results as given in patent US20240382475A1, “Quinazoline Derivative, Or Preparation Method Therefor And Use Thereof” (Zhejiang Hisun Pharmaceutical Co., Ltd., priority 2021, published 2024).

What was measured:
OCI-AML5 cells = test: Inhibition of OCI-AML5 cell proliferation (CellTiter-Glo); type: cell-based; conditions: Homo sapiens, OCI-AML-5; OCI-AML5 cells (SOS1 N233Y mutation), 120 hours
Method: The following method was used to determine the influence of the compounds of the present invention on OCI-AML5 cells proliferation. OCI-AML5 cells (containing SOS1 N233Y mutation) were purchased from Nanjing Kebai Biotechnology Co., Ltd. and cultured in MEMα medium containing 10% fetal bovine serum, 100 U penicillin, and 100 μg/mL streptomycin. The activities of the cells were determined by CellTiter-Glo® Luminescent Cell Viability Assay Kit (Promega, Art. No. G7573).
The experimental method was operated according to the steps in the kit instruction, which were briefly described as follows: the test compounds were first dissolved in DMSO to prepare storage solutions of 10 mM, and then diluted with culture mediums to prepare test samples. The final concentrations of the compounds were 10000 nM to 0.15 nM. Cells in logarithmic phase were inoculated in a 96-well cell culture plate with 1,000 cells per well, after cultured overnight in 5% CO2 incubator at 37° C., the test compounds were added to the incubator to continue the culture for 120 hours. After the culture was completed, 50 μL of CellTiter-Glo detection solution was added to each well, shaken for 5 minutes and then stood for 10 minutes. Then, a Luminescence mode was used to read the luminescence values of each well of the samples on a microplate reader.

KRAS-G12C/SOS1 = biological target: T1, KRAS-G12C/SOS1 (Homo sapiens, UniProt Q07889); test: Blocking the binding of KRAS G12C protein to SOS1 (Cisbio KRAS-G12C/SOS1 binding assay kit, TR-FRET); conditions: Tag1-SOS1 and Tag2-KRAS-G12C, TR-FRET 665/620; read-out: IC50 (nM) Inhibition of KRAS-G12C/SOS1 binding
T1 construct: purchased Cisbio 63ADK000CB16PEG
T1 sequence (Q07889 1-1333): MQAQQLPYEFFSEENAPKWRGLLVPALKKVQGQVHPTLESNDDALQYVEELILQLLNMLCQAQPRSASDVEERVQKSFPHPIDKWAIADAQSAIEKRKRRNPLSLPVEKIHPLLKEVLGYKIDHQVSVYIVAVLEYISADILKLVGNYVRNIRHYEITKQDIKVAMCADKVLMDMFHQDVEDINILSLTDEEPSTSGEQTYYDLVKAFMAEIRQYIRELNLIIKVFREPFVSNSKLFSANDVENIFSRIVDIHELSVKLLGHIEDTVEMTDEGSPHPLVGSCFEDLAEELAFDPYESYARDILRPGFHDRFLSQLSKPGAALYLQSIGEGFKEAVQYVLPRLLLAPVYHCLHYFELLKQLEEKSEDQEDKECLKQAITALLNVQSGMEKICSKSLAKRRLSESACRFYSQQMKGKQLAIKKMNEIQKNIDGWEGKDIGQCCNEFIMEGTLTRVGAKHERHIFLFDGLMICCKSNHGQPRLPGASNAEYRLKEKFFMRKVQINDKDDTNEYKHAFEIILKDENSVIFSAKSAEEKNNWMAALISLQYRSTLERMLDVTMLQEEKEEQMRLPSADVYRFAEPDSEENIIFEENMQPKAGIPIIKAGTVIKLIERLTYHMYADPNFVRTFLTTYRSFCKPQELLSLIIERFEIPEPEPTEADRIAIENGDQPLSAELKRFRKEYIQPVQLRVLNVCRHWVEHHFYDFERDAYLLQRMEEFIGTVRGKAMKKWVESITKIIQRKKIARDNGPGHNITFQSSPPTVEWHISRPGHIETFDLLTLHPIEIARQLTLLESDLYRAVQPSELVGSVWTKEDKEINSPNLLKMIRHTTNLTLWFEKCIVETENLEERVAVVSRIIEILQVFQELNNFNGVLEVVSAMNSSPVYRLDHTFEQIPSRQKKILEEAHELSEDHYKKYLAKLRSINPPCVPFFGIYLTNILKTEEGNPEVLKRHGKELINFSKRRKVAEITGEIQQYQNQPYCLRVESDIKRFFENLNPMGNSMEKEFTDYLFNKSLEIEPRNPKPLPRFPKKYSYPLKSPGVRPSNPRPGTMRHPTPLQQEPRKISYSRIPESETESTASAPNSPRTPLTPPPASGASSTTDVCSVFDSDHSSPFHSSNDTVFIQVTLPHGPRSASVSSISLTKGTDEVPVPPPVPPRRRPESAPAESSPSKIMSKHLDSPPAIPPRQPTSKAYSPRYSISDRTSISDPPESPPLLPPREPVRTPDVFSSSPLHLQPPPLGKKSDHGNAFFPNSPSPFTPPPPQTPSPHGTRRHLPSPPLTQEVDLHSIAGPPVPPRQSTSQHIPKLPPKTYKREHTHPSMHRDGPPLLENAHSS
Text: The following method was used to determine the abilities of compounds of the invention to block the interaction of SOS1 with the KRAS G12C protein in vitro. KRAS-G12C/SOS1 BINDING ASSAY KITS (Art. No. 63ADK000CB16PEG) from Cisbio was used in this method. Please refer to the kit instruction for detailed experimental operations.
The experimental process can be briefly described as follows: diluent buffer (Art. No. 62DLBDDF) was used to prepare a working solution with a concentration of 5× for Tag1-SOS1 and Tag2-KRAS-G12C protein. The test compounds were dissolved in DMSO to prepare storage solutions of 10 mM, and then the solutions were diluted with dilution buffer for later use. First, 2 μL of the test compound (the final concentrations of the reaction system were 10000 nM-0.1 nM) was added to the well, then 4 μL of Tag1-SOS1 5× working solution and 4 μL of Tag2-KRAS-G12C 5× working solution were added, and the above mixture was centrifuged, mixed, and stood for 15 minutes; then 10 μL of premixed anti-Tag1-Tb^3+ and anti-Tag2-XL665 were added, and the mixture was incubated at room temperature for 2 hours; finally, a microplate reader was used in […] mode to measure the fluorescence intensity of each well emitting wavelengths of 620 nm and […] under the excitation wavelength of 304 nm, and the fluorescence intensity ratio 665/620 in each well was calculated. Compared with the fluorescence intensity ratio of a control group (0.1% DMSO), the percentage inhibition rates of the test compounds at each concentration were calculated, and the IC50 values of the compounds were obtained by performing nonlinear regression analysis with logarithmic values of the compound concentration-inhibition rate by GraphPad Prism 5 software, which was shown in Table 1.

p-ERK1/2 in DLD-1 cells = test: Inhibition of p-ERK1/2 in DLD-1 cells (Cisbio Advanced phospho-ERK1/2 kit); type: cell-based; conditions: Homo sapiens; DLD-1 cells (KRAS G13D mutation), hEGF 5 nM stimulation; read-out: IC50 (nM) Inhibition on p-ERK½ in DLD-1 cells
Text: The following method was used to determine the inhibition activities of the compounds of the present invention on p-ERK1/2 in DLD-1 cells. The Advanced phospho-ERK1/2 (Thr202/tyr2O4) kit (Art. No. 64AERPEH) from Cisbio was used in this method. Please refer to the kit instruction for detailed experimental operations. DLD-1 cells (containing KRAS G13D mutation) were purchased from the Cell Resource Center of Shanghai Institutes for Biological Sciences, Chinese Academy of Sciences.
The experimental process can be briefly described as follows: DLD-1 cells were cultured in RPMI 1640 complete medium containing 10% fetal bovine serum, 100 U penicillin, 100 μg/mL streptomycin and 1 mM Sodium Pyruvate. DLD-1 cells were plated in a 96-well plate at 30,000 cells per well, after cultured overnight in 5% CO2 incubator at 37° C. with complete culture medium. The test compounds were dissolved in DMSO to prepare storage solutions of 10 mM, and then diluted with RPMI 1640 basic mediums. 90 μL of RPMI 1640 basic mediums containing the test compounds at the corresponding concentration were added to each well. The final concentrations of the test compounds in the reaction system were 10,000 nM to 0.15 nM, and were placed in a cell culture incubator for 3 hours and 40 minutes. Subsequently, 10 μL of hEGF (purchased from Roche, Art. No. 11376454001) prepared with RPMI 1640 basic medium was added to a final concentration of 5 nM, and placed in the incubator for culturing for 20 minutes. The cell supernatant was discarded, and the cells were washed with PBS on ice-bath. Then, 45 μl of 1× cell phospho/total protein lysis buffer (component of Advanced phospho-ERK1/2 kit) was added to each well for lysis. The 96-well plate was placed on ice for 0.5 hours to lyse, and then the lysate was detected according to the instruction of the Advanced phospho-ERK1/2 (Thr202/tyr2O4) kit. Finally, the microplate reader was used in […] mode to measure the fluorescence intensity of each well emitting wavelengths of 620 nm and […] under the excitation wavelength of 304 nm, and the fluorescence intensity ratio 665/620 in each well was calculated. By comparing with the fluorescence intensity ratio of a control group (0.1% DMSO), the percentage inhibition rates of the test compounds at each concentration were calculated, and the IC50 values of the compounds were obtained by performing nonlinear regression analysis with logarithmic values of the compound concentration-inhibition rate by GraphPad Prism 5 software, which can be seen in Table 3.

NCI-H358 cells = test: Inhibition of NCI-H358 cell proliferation under 3D non-anchored conditions (CellTiter-Glo 3D); type: cell-based; conditions: Homo sapiens, NCI-H358 cells (KRAS G12C mutation), 120 hours
Method: The following method was used to determine the effects of the compounds of the present invention on NCI-H358 cell proliferation under three-dimensional (3D) non-anchored conditions. NCI-H358 cells (containing KRAS G12C mutation) were purchased from the Cell Resource Center of Shanghai Institutes for Biological Sciences, Chinese Academy of Sciences, and cultured in RPMI 1640 medium containing 10% fetal bovine serum, 100 U penicillin, 100 μg/mL streptomycin and 1 mM Sodium Pyruvate. The activities of the cells were determined by CellTiter-Glo® 3D Cell Viability Assay Kit (Promega, Art. No. G9683).
The experimental method was operated according to the steps in the kit instruction, which can be briefly described as follows: the test compounds were first dissolved in DMSO to prepare storage solutions of 10 mM, and then diluted with culture mediums to prepare test samples. The final concentrations of the compounds were 10000 nM to 0.15 nM. Cells in logarithmic phase were inoculated in an ultra-low adsorption 384-well cell culture plate (PerkinElmer, #3830) with 2000 cells per well, and the test compounds were added and cultured for 120 hours. After the culture was completed, 30 μL of CellTiter-Glo 3D detection solution was added to each well, shaken for 30 minutes and then stood for 120 minutes. Then, a Luminescence mode was used to read the luminescence values of each well of the samples on a microplate reader. By comparing with the numerical value of a control group (0.1% DMSO), the percentage inhibition rates of the compounds at each concentration were calculated, and the IC50 values of the compounds inhibiting cell proliferation were obtained by performing nonlinear regression analysis with logarithmic values of the compound concentration-inhibition rate by GraphPad Prism 5 software, which can be seen in Table 4.

Row | Compound | IC50 (OCI-AML5 cells) [nM] | IC50 (KRAS-G12C/SOS1) [nM] | IC50 (p-ERK1/2 in DLD-1 cells) [nM] | IC50 (NCI-H358 cells) [nM]
1 | COc1cc2nc(C)nc(N[C@H](C)c3cccc(C#N)c3C)c2cc1N1CC(C#N)C1 [Compound 12, (R)-1-(4-((1-(3-cyano-2-methylphenyl)ethyl)amino)-7-methoxy-2-methylquinazolin-6-yl)azetidine-3-carbonitrile] | 23 | 88.4 |  | 
2 | COc1cc2nc(C)nc(N[C@H](C)c3cccc(C#N)c3C)c2cc1N1CCN(S(C)(=O)=O)CC1 [Compound 13, (R)-3-(1-((7-methoxy-2-methyl-6-(4-(methylsulfonyl)piperazin-1-yl)quinazolin-4-yl)amino)ethyl)-2-methylbenzonitrile] | 25.4 |  | 73.5 | 
3 | COc1cc2nc(C)nc(N[C@H](C)c3cccc(C#N)c3C)c2cc1N1CCC(N2CCN(C)CC2)CC1 [Compound 15, (R)-3-(1-((7-methoxy-2-methyl-6-(4-(4-methylpiperazin-1-yl)piperidin-1-yl)quinazolin-4-yl)amino)ethyl)-2-methylbenzonitrile] | 3.7 | 31.7 |  | 
4 | COc1cc2nc(C)nc(N[C@H](C)c3cccc(C#N)c3C)c2cc1N1CCC2(CC1)CNC2 [Compound 16c, (R)-3-(1-((7-methoxy-2-methyl-6-(2,7-diazaspiro[3.5]nonan-7-yl)quinazolin-4-yl)amino)ethyl)-2-methylbenzonitrile] | 13.1 | 20.3 |  | 
5 | COc1cc2nc(C)nc(N[C@H](C)c3cccc(C#N)c3C)c2cc1N1CCC(OC)CC1 [Compound 17, (R)-3-(1-((7-methoxy-6-(4-methoxypiperidin-1-yl)-2-methylquinazolin-4-yl)amino)ethyl)-2-methylbenzonitrile] | 10.6 |  | 29.2 | 
6 | COc1cc2nc(C)nc(N[C@H](C)c3cccc(C#N)c3C)c2cc1N1CCC2(CCN(C(C)=O)CC2)CC1 [Compound 18, (R)-3-(1-((6-(9-acetyl-3,9-diazaspiro[5.5]undecan-3-yl)-7-methoxy-2-methylquinazolin-4-yl)amino)ethyl)-2-methylbenzonitrile] | 2.6 |  |  | 6.9
7 | COc1cc2nc(C)nc(N[C@H](C)c3cccc(C#N)c3C)c2cc1N1CCN(CCO)CC1 [Compound 20, (R)-3-(1-((6-(4-(2-hydroxyethyl)piperazin-1-yl)-7-methoxy-2-methylquinazolin-4-yl)amino)ethyl)-2-methylbenzonitrile] |  |  |  | 52.4
8 | COc1cc2nc(C)nc(N[C@H](C)c3cccc(C#N)c3C)c2cc1N1CCC(C(=O)N(C)C)CC1 [Compound 22, (R)-1-(4-((1-(3-cyano-2-methylphenyl)ethyl)amino)-7-methoxy-2-methylquinazolin-6-yl)-N, N-dimethylpiperidine-4-carboxamide] | 7.2 |  | 20.9 | 15.1
